Measurements published in US10118901B2 (priority 2013, dated 2018).

Legend:
DU-145 = assay: NCI-60 screen at 10 μM: DU-145; type: cell-based, human; settings: Prostate Cancer DU-145; 10 μM single dose; 48 hrs
Description: (§1) NL-101 and CY-102 was sent to U.S. National Cancer Institute (NCI) for NCI 60-cell line screening using a single compound dose (10 μM).
(§2) The human tumor cell lines of the cancer screening panel were grown in RPMI 1640 medium containing 5% fetal bovine serum (5% FBS) and 2 mM L-glutamine. For a typical screening experiment, cells were inoculated into 96-well microtiter plates in 100 μL, at plating densities ranging from 5,000 to 40,000 cells/well depending on the doubling time of individual cell lines. After cell inoculation, the microtiter plates were incubated at 37° C., 5% CO2, 95% air, and 100% relative humidity for 24 h prior to addition of experimental compounds. […]
(§3) Following drug addition, the plates were incubated for an additional 48 hrs at 37° C., 5% CO2, 95% air, and 100% relative humidity. […] Bound stain was subsequently solubilized with 10 mM trizma base, and the absorbance was read on an automated plate reader at a wavelength of 515 nm. […]
(§4) Using the seven absorbance measurements [time zero, (Tz), control growth, (C), and test growth in the presence of drug at the 10 μM concentration levels (Ti)], percentage growth was calculated at each of the drug concentrations levels. Percentage growth inhibition was calculated as: [(Ti−Tz)/(C−Tz)]×100 for which Ti>/=Tz or [(Ti−Tz)/Tz]×100 for which Ti<Tz.

SNB-19 = assay: NCI-60 screen at 10 μM: SNB-19; type: cell-based, human; settings: CNS Cancer (Glioma) SNB-19; 10 μM single dose; 48 hrs
Description: as §1, §2, §3, §4

HT29 = assay: NCI-60 screen at 10 μM: HT29; type: cell-based, human; settings: Colon Cancer HT29; 10 μM single dose; 48 hrs
Description: as §1, §2, §3, §4

SK-OV-3 = assay: NCI-60 screen at 10 μM: SK-OV-3; type: cell-based, human; settings: Ovarian Cancer SK-OV-3; 10 μM single dose; 48 hrs
Description: as §1, §2, §3, §4

K-562 = assay: NCI-60 screen at 10 μM: K-562; type: cell-based, human; settings: Leukemia K-562; 10 μM single dose; 48 hrs
Description: as §1, §2, §3, §4

UACC-62 = assay: NCI-60 screen at 10 μM: UACC-62; type: cell-based, human; settings: Melanoma UACC-62; 10 μM single dose; 48 hrs
Description: as §1, §2, §3, §4

OVCAR-8 = assay: NCI-60 screen at 10 μM: OVCAR-8; type: cell-based, human; settings: Ovarian Cancer OVCAR-8; 10 μM single dose; 48 hrs
Description: as §1, §2, §3, §4

HL-60(TB) = type: cell-based, human
KM12 = assay: NCI-60 screen at 10 μM: KM12; type: cell-based, human; settings: Colon Cancer KM12; 10 μM single dose; 48 hrs
Description: as §1, §2, §3, §4

HS 578T = assay: NCI-60 screen at 10 μM: HS 578T; type: cell-based, human; settings: Breast Cancer HS 578T; 10 μM single dose; 48 hrs
Description: as §1, §2, §3, §4

SF-295 = assay: NCI-60 screen at 10 μM: SF-295; type: cell-based, human; settings: CNS Cancer (Glioma) SF-295; 10 μM single dose; 48 hrs
Description: as §1, §2, §3, §4

CAKI-1 = assay: NCI-60 screen at 10 μM: CAKI-1; type: cell-based, human; settings: Renal Cancer CAKI-1; 10 μM single dose; 48 hrs
Description: as §1, §2, §3, §4

T-47D = assay: NCI-60 screen at 10 μM: T-47D; type: cell-based, human; settings: Breast Cancer T-47D; 10 μM single dose; 48 hrs
Description: as §1, §2, §3, §4

SN12C = assay: NCI-60 screen at 10 μM: SN12C; type: cell-based, human; settings: Renal Cancer SN12C; 10 μM single dose; 48 hrs
Description: as §1, §2, §3, §4

A549/ATCC = assay: NCI-60 screen at 10 μM: A549/ATCC; type: cell-based, human; settings: NSCLC A549/ATCC; 10 μM single dose; 48 hrs
Description: as §1, §2, §3, §4

A498 = assay: NCI-60 screen at 10 μM: A498; type: cell-based, human; settings: Renal Cancer A498; 10 μM single dose; 48 hrs
Description: as §1, §2, §3, §4

MDA-MB-435 = assay: NCI-60 screen at 10 μM: MDA-MB-435; type: cell-based, human; settings: Melanoma MDA-MB-435; 10 μM single dose; 48 hrs
Description: as §1, §2, §3, §4

U251 = assay: NCI-60 screen at 10 μM: U251; type: cell-based, human; settings: CNS Cancer (Glioma) U251; 10 μM single dose; 48 hrs
Description: as §1, §2, §3, §4

NCI/ADR-RES = assay: NCI-60 screen at 10 μM: NCI/ADR-RES; type: cell-based, human; settings: Ovarian Cancer NCI/ADR-RES; 10 μM single dose; 48 hrs
Description: as §1, §2, §3, §4

OVCAR-3 = assay: NCI-60 screen at 10 μM: OVCAR-3; type: cell-based, human; settings: Ovarian Cancer OVCAR-3; 10 μM single dose; 48 hrs
Description: as §1, §2, §3, §4

UACC-257 = assay: NCI-60 screen at 10 μM: UACC-257; type: cell-based, human; settings: Melanoma UACC-257; 10 μM single dose; 48 hrs
Description: as §1, §2, §3, §4

HCT-15 = assay: NCI-60 screen at 10 μM: HCT-15; type: cell-based, human; settings: Colon Cancer HCT-15; 10 μM single dose; 48 hrs
Description: as §1, §2, §3, §4

COLO 205 = assay: NCI-60 screen at 10 μM: COLO 205; type: cell-based, human; settings: Colon Cancer COLO 205; 10 μM single dose; 48 hrs
Description: as §1, §2, §3, §4

60 cancer cell lines = assay: NCI-60 DTP human tumor cell line screen at 10 μM, whole panel; type: cell-based; settings: for Growth %, Median: 10 μM single dose, median over cell lines; for mean growth percent in the 60 cancer cell lines: single dose of about 10 μM
Description: as §1
The human tumor cell lines of the cancer screening panel were grown in RPMI 1640 medium containing 5% fetal bovine serum (5% FBS) and 2 mM L-glutamine. For a typical screening experiment, cells were inoculated into 96-well microtiter plates in 100 μL, at plating densities ranging from 5,000 to 40,000 cells/well depending on the doubling time of individual cell lines. After cell inoculation, the microtiter plates were incubated at 37° C., 5% CO2, 95% air, and 100% relative humidity for 24 h prior to addition of experimental compounds. After 24 hr, two plates of each cell line were fixed in situ with TCA, to represent a measurement of the cell population for each cell line at the time of drug addition (Tz). Experimental drugs were solubilized in dimethyl sulfoxide at 400-fold the desired final maximum test concentration and stored frozen prior to use. At the time of drug addition, an aliquot of frozen concentrate was thawed and diluted to twice the desired final maximum test concentration with complete medium containing 50 μg/ml gentamicin. Aliquots of 100 μL of these different drug dilutions were added to the appropriate microtiter wells already containing 100 μL of medium, resulting in the required final drug concentrations.
Following drug addition, the plates were incubated for an additional 48 hrs at 37° C., 5% CO2, 95% air, and 100% relative humidity. For adherent cells, the assay was terminated by the addition of cold TCA. Cells were then fixed in situ by the gentle addition of 50 μL of cold 50% (w/v) TCA (final concentration, 10% TCA) and incubated for 60 minutes at 4° C. The supernatant was discarded, and the plates were washed five times with tap water and air dried. Sulforhodamine B (SRB) solution (100 μL) at 0.4% (w/v) in 1% acetic acid was added to each well, and plates were incubated for 10 minutes at room temperature. After staining, unbound dye was removed by washing five times with 1% acetic acid and the plates were air dried. Bound stain was subsequently solubilized with 10 mM trizma base, and the absorbance was read on an automated plate reader at a wavelength of 515 nm. […]
as §4

**Q.** How did the Growth % (DU-145) turn out when Cn1c(CCNCc2ccc(/C=C/C(=O)NO)cc2)nc2cc(N(CCCl)CCCl)ccc21 [CY-102] was run?
**A.** Its Growth % is −16.06%.

**Q.** What about the Growth % (SNB-19) of the same molecule?
**A.** Its Growth % is −10.81%.

**Q.** And the Growth % (HT29)?
**A.** The Growth % was −50.67%.

**Q.** And the Growth % (SK-OV-3)?
**A.** The Growth % was −41.53%.

**Q.** And the Growth % (K-562)?
**A.** The Growth % was 1.07%.

**Q.** And the Growth % (UACC-62)?
**A.** Its Growth % is −69.24%.

**Q.** What about the Growth % (OVCAR-8) of the same molecule?
**A.** The Growth % was −26.88%.

**Q.** And the Growth % (HL-60(TB))?
**A.** Its Growth % is −10.34%.

**Q.** And the Growth % (KM12)?
**A.** Its Growth % is −78.14%.

**Q.** What about the Growth % (HS 578T) of the same molecule?
**A.** Its Growth % is 8.17%.

**Q.** And the Growth % (SF-295)?
**A.** Its Growth % is −53.87%.

**Q.** And the Growth % (CAKI-1)?
**A.** Its Growth % is −25.49%.

**Q.** And the Growth % (T-47D)?
**A.** The Growth % was −27.48%.

**Q.** What about the Growth % (SN12C) of the same molecule?
**A.** Its Growth % is −1.53%.

**Q.** What about the Growth % (A549/ATCC) of the same molecule?
**A.** Its Growth % is −32.69%.

**Q.** What about the Growth % (A498) of the same molecule?
**A.** The Growth % was −81.56%.

**Q.** And the Growth % (MDA-MB-435)?
**A.** Its Growth % is −73.24%.

**Q.** What about the Growth % (U251) of the same molecule?
**A.** Its Growth % is −39.66%.

**Q.** And the Growth % (NCI/ADR-RES)?
**A.** Its Growth % is 17.78%.

**Q.** And the Growth % (OVCAR-3)?
**A.** Its Growth % is −55.02%.

**Q.** And the Growth % (UACC-257)?
**A.** Its Growth % is −36.39%.

**Q.** And the Growth % (HCT-15)?
**A.** The Growth % was 9.96%.

**Q.** What about the Growth % (COLO 205) of the same molecule?
**A.** Its Growth % is −81.34%.

**Q.** What about the “Growth %, Median” value (60 cancer cell lines) of the same molecule?
**A.** Its value is −28.5%.

**Q.** And the “mean growth percent in the 60 cancer cell lines” value (60 cancer cell lines)?
**A.** The value was −28%.

**Q.** How did the Growth % (DU-145) turn out when Cn1c(CCCCCCC(=O)NO)nc2cc(N(CCCl)CCCl)ccc21 [NL-101] was run?
**A.** The Growth % was 18.47%.

**Q.** What about the Growth % (SNB-19) of the same molecule?
**A.** Its Growth % is 55.62%.

**Q.** And the Growth % (HT29)?
**A.** Its Growth % is 37.10%.

**Q.** What about the Growth % (SK-OV-3) of the same molecule?
**A.** Its Growth % is 34.40%.

**Q.** What about the Growth % (K-562) of the same molecule?
**A.** Its Growth % is 31.63%.

**Q.** And the Growth % (UACC-62)?
**A.** The Growth % was 12.99%.

**Q.** What about the Growth % (OVCAR-8) of the same molecule?
**A.** The Growth % was 32.65%.

**Q.** What about the Growth % (HL-60(TB)) of the same molecule?
**A.** Its Growth % is 18.98%.

**Q.** And the Growth % (KM12)?
**A.** Its Growth % is 65.79%.

**Q.** What about the Growth % (HS 578T) of the same molecule?
**A.** The Growth % was 24.01%.

**Q.** What about the Growth % (SF-295) of the same molecule?
**A.** The Growth % was 43.95%.

**Q.** And the Growth % (CAKI-1)?
**A.** The Growth % was 27.64%.

**Q.** What about the Growth % (T-47D) of the same molecule?
**A.** The Growth % was −16.57%.

**Q.** And the Growth % (SN12C)?
**A.** Its Growth % is 17.91%.

**Q.** And the Growth % (A549/ATCC)?
**A.** Its Growth % is 43.54%.

**Q.** And the Growth % (A498)?
**A.** The Growth % was 49.70%.

**Q.** And the Growth % (MDA-MB-435)?
**A.** Its Growth % is 49.07%.

**Q.** And the Growth % (U251)?
**A.** Its Growth % is 35.03%.

**Q.** And the Growth % (NCI/ADR-RES)?
**A.** The Growth % was 77.80%.

**Q.** What about the Growth % (OVCAR-3) of the same molecule?
**A.** The Growth % was 50.40%.

**Q.** And the Growth % (UACC-257)?
**A.** Its Growth % is 33.75%.

**Q.** And the Growth % (HCT-15)?
**A.** Its Growth % is 76.48%.

**Q.** What about the Growth % (COLO 205) of the same molecule?
**A.** The Growth % was 54.36%.

**Q.** And the “Growth %, Median” value (60 cancer cell lines)?
**A.** Its value is 36.35%.

**Q.** What about the “mean growth percent in the 60 cancer cell lines” value (60 cancer cell lines) of the same molecule?
**A.** The value was 36%.
